Tests used:
rabbits = assay: nonclinical studies, seizures in rabbits; type: in vivo
Procedure: (§1) The 35 mg dose was evaluated in four Phase 2 trials and is the dose being evaluated in a Phase 3 pivotal study. In the AZ310866 Phase 2b study, there was a dose dependent increase in efficacy vs placebo in the ADAS-Cog score between 15 mg (−0.7 units) and 35 mg (−1.7 units). […] These benefits need to be balanced with the potential for adverse events, in particular, the CNS toxicity observed in dogs and rabbits described below. […] In the 26-week dog study, one high-dose dog had seizures on Day 55 and was euthanized. A second dog had seizures on Day 59 and survived. For the second dog, plasma samples taken approximately 5 minutes and two hours after the seizure (4 and 6 hours post dose on Day 59) had SB742457 concentrations of 1570 and 1440 ng/mL, respectively. […] In study SB742457/005, elderly subjects received 35 mg once daily of 3-phenylsulfonyl-8-piperazinyl-1yl-quinoline for 28 days. […] This mean value is approximately ¼th the Cmax value observed in dogs with seizures. The maximum concentration that may be achieved is approximately ½ the Cmax value observed in the 2 dogs with seizures. […]

[1] = rat maximal electroshock seizure threshold test; conditions: in vivo, exposure at which seizure threshold was not decreased, read-out: extrapolated Cmax
Procedure: as §1

mice = assay: nonclinical studies, seizures in mice; type: in vivo
[2] = study SB742457/005, pharmacokinetics in elderly subjects; type: in vivo, human; conditions: for Cmax: human, plasma
Procedure: (§2) The 35 mg dose was evaluated in four Phase 2 trials and is the dose being evaluated in a Phase 3 pivotal study. In the AZ310866 Phase 2b study, there was a dose dependent increase in efficacy vs placebo in the ADAS-Cog score between 15 mg (−0.7 units) and 35 mg (−1.7 units). […] These benefits need to be balanced with the potential for adverse events, in particular, the CNS toxicity observed in dogs and rabbits described below. […] In the 26-week dog study, one high-dose dog had seizures on Day 55 and was euthanized. A second dog had seizures on Day 59 and survived. For the second dog, plasma samples taken approximately 5 minutes and two hours after the seizure (4 and 6 hours post dose on Day 59) had SB742457 concentrations of 1570 and 1440 ng/mL, respectively. […] In study SB742457/005, elderly subjects received 35 mg once daily of 3-phenylsulfonyl-8-piperazinyl-1yl-quinoline for 28 days. […] This mean value is approximately ¼th the Cmax value observed in dogs with seizures. The maximum concentration that may be achieved is approximately ½ the Cmax value observed in the 2 dogs with seizures. To further understand the risk to humans, SimCYP population PBPK modelling was used to predict brain concentrations of 3-phenylsulfonyl-8-piperazinyl-1yl-quinoline in dogs exposed to the concentrations linked with seizures, and to compare these with predicted human brain concentrations at the clinical dose of 35 mg. The simulations predicted that the human steady-state brain concentrations following repeat administration with 35 mg would be approximately 40-fold lower than the brain concentrations associated with seizures in dogs. Assuming linear pharmacokinetics, the human steady-state brain concentrations with 70 mg would be approximately 20-fold lower than the brain concentrations associated with convulsions in dogs. […] Furthermore, in Phase 2 studies encompassing 1024 patients with Alzheimer's disease at doses of 5 mg to 35 mg per day, two subjects reported seizures, both in the Phase 2b study with 3-phenylsulfonyl-8-piperazinyl-1yl-quinolone administered as adjunctive therapy to donepezil. One subject was in the placebo group and one in the 15 mg 3-phenylsulfonyl-8-piperazinyl-1yl-quinoline group. The subject receiving 3-phenylsulfonyl-8-piperazinyl-1yl-quinoline was hospitalized with a suspicion of a TIA and experienced a seizure, which was reported by the PI as not attributable to study drug.

in vivo = conditions: dog
Procedure: as §2

dogs = assay: in vivo; conditions: dog
Procedure: as §2

rats = assay: nonclinical studies, seizures in rats; type: in vivo
[3] = tested on: healthy rat brain glucose utilization; assay: FDG-PET/CT brain glucose utilization in healthy rats; type: in vivo; conditions: healthy young CD rats, 10 mg/kg or 20 mg/kg 3 h prior to FDG; pairwise comparisons did not reach statistical significance
Excerpt: 3-phenylsulfonyl-8-piperazinyl-1yl-quinoline is a potent antagonist of the 5-hydroxytryptamine 6 (5-HT6) serotonin receptor. Reduced glucose utilization is an early sign of decreasing brain function in AD. Altered neuronal glucose uptake assessed by flurodeoxyglucose-positron emission tomography (FDG-PET) may be useful as a diagnostic foundation for identifying patients with AD. This study evaluates 3-phenylsulfonyl-8-piperazinyl-1yl-quinoline at clinically relevant doses on healthy rat brain glucose utilization using FDG-PET/CT.
Methods: Healthy, young CD rats were pre-dosed with vehicle (1% methylcellulose, w/v) or RVT-101 (10 mg/kg or 20 mg/kg) 3 h prior to FDG (18.1±3.5 MBq, i.v.). Brain FDG standard uptake values (SUV) were quantified using scanning in single 20 min list mode (BioPET/CT, Sedecal) starting 30 min post FDG dosing. PET/CT scans were analyzed as a single time frame summarizing counts over 20 min. All experiments were completed in an accredited facility according to NIH guidelines. PET/CT imaging data were analyzed using Student's t-test, cluster analysis, and multivariate analysis of variance (MANOVA) using a subset of SUV from 5 cluster-identified regions.

clinical = conditions: human, in vivo
[4] = tested on: patients with Alzheimer's disease; assay: AZ310866 Phase 2b study, ADAS-Cog score vs placebo; type: in vivo, human
Procedure: as §1

healthy subjects = assay: clinical studies with healthy subjects (n=225), seizures; type: in vivo; conditions: single doses of up to 175 mg and repeat doses of up to 50 mg for 13 days
Procedure: as §1

[5] = tested on: patients with Alzheimer's disease; assay: Phase 2 studies in 1024 patients with Alzheimer's disease, seizures; type: in vivo; conditions: 15 mg group, Phase 2b study, adjunctive therapy to donepezil; reported as not attributable to study drug
Procedure: as §1

O=S(=O)(c1ccccc1)c1cnc2c(N3CCNCC3)cccc2c1 [3-phenylsulfonyl-8-piperazinyl-1yl-quinoline]
seizures (rabbits; nonclinical studies): caused seizures
seizures (rabbits; single dose at 300 mg/kg, exceeded the maximum tolerated repeat-dose level): seizures were produced
Cmax [1]: 1890 ng/mL
seizures (mice): not in rodents
Cmax ([2]; both sexes, 35 mg, elderly subjects, 35 mg once daily for 28 days, read-out: highest recorded Cmax): 307 ng/mL
Cmax ([2]; female, 35 mg, elderly females, 35 mg once daily for 28 days, read-out: mean Cmax): 177 ng/mL
expected maximum concentration at 70 mg relative to the Cmax observed in the 2 dogs with seizures ([2]; human 70 mg vs dog): approximately ½
expected mean Cmax at 70 mg relative to the Cmax observed in dogs with seizures ([2]; human 70 mg vs dog): approximately ¼
Cmax ([2]; oral, 70 mg, multiple dosing with 70 mg, extrapolated given linear human pharmacokinetics, read-out: expected maximum Cmax): 714 ng/mL
Cmax ([2]; oral, 70 mg, multiple dosing with 70 mg, extrapolated given linear human pharmacokinetics, read-out: expected mean Cmax): ~360 ng/mL
Cmax ([2]; male, 35 mg, elderly males, 35 mg once daily for 28 days, read-out: mean Cmax): 181 ng/mL
Cmax (in vivo): 1700 ng/mL
concentration at 4 h post dose on Day 59 (in vivo): 1570 ng/mL
concentration at 6 h post dose on Day 59 (in vivo): 1440 ng/mL
plasma concentration associated with an increased seizure risk (dogs): > 1570 ng/mL
plasma concentrations achieved (dogs): up to 1937 ng/mL
seizures (dogs; 7.5 mg/kg/day): did not occur
seizures (rats): not in rodents
brain glucose uptake (FDG SUV) [3]: trend of increased glucose uptake
AUC (clinical): ~3200 ng·h/mL
AUC(0-inf) (clinical): ~9250 ng·h/mL
Cmax (clinical; Cmax): ~293 ng/mL
Cmax (clinical; mean Cmax): ~180 ng/mL
increase in efficacy vs placebo in the ADAS-Cog score ([4]; 15 mg): −0.7 units
increase in efficacy vs placebo in the ADAS-Cog score ([4]; 35 mg): −1.7 units
seizures (healthy subjects): no seizures were observed
subjects reporting seizures [5]: one
